Measurements taken from patent US11220504B2, “Pyrrolo[3,2-d] pyrimidine derivatives for the treatment of viral infections and other diseases” (JANSSEN SCIENCES IRELAND UNLIMITED COMPANY, priority 2012, dated 2022).

Legend:
human TLR8 = biological target: T1, human TLR8 (Homo sapiens, UniProt Q9NR97); test: TLR8 cellular reporter assay (HEK293, NFκB-luc); format: cell-based; settings: HEK293 cells transfected with CMV-TLR8 and NFκB-luc, 6 hours incubation; lowest effective concentration
T1 construct: expressed in transfected cells; host or cells: HEK293 cells, transient transfection with TLR8 plasmid and NFκB-luc plasmid
T1 sequence (Q9NR97 27-1041): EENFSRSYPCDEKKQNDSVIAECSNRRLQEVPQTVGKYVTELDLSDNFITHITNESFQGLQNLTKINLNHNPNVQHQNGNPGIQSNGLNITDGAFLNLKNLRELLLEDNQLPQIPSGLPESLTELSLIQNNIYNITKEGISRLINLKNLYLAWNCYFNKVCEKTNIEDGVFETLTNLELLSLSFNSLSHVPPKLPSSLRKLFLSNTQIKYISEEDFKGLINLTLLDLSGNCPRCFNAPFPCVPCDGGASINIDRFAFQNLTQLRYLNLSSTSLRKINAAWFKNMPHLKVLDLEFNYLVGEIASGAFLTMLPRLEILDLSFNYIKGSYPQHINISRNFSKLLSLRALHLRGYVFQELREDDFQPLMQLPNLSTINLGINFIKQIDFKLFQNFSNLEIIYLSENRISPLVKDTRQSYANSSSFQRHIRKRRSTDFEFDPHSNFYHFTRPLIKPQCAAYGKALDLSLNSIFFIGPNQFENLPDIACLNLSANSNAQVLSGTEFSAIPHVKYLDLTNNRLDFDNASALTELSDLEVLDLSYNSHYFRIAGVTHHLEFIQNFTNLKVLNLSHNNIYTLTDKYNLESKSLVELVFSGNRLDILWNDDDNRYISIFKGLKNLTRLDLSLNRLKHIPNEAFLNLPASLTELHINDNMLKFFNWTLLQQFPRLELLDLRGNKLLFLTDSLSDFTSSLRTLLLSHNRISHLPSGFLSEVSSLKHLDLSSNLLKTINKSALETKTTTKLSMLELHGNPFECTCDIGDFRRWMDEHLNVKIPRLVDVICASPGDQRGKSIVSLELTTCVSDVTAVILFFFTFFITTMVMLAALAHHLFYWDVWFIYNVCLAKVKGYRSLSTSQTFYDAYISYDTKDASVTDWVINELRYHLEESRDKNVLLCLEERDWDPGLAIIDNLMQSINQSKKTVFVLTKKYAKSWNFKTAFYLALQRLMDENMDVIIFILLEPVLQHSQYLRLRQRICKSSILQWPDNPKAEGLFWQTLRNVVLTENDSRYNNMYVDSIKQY
Outline: (§1)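 HEK293 cells transiently transfected with receptor expression vector plus NFκB-luciferase reporter, exposed to compound (added in 4% DMSO) for 6 hours at 37° C, 5% CO2. Luciferase activity measured by luminescence; dose-response curves from quadruplicate measurements.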

human TLR7 = biological target: T2, human TLR7 (Homo sapiens, UniProt Q9NYK1); test: TLR7 cellular reporter assay (HEK293, NFκB-luc); format: cell-based; settings: HEK293 cells transfected with CMV-TLR7 and NFκB-luc, 6 hours incubation; lowest effective concentration
T2 construct: expressed in transfected cells; host or cells: HEK293 cells, transient transfection with CMV-TLR7 plasmid and NFκB-luc plasmid
T2 sequence (Q9NYK1 27-1049): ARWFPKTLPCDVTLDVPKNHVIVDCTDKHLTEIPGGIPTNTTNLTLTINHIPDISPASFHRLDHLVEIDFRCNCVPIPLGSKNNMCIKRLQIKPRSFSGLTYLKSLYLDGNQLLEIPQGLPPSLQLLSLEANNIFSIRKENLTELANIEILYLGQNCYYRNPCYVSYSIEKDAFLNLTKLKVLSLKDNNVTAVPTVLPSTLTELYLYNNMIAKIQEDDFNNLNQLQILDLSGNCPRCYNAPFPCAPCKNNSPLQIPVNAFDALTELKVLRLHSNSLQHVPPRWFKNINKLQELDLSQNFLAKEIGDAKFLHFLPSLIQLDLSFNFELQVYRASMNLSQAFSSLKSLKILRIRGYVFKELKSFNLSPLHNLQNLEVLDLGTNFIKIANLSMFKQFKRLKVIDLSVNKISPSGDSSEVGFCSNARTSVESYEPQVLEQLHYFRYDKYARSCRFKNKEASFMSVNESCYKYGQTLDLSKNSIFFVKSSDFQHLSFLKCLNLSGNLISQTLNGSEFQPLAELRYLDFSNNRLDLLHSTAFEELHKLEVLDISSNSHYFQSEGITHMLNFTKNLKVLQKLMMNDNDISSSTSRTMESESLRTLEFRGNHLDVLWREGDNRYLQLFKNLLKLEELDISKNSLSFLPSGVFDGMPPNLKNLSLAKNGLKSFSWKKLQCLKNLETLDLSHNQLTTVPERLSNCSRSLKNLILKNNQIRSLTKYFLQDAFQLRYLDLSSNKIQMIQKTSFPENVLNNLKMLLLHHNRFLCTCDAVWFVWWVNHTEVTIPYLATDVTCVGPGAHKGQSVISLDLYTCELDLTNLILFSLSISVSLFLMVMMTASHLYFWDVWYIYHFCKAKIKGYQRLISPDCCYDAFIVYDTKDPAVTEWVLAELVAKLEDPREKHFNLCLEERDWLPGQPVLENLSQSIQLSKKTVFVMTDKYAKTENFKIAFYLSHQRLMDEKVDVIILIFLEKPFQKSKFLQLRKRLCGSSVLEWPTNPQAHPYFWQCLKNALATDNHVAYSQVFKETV
Outline: as §1

[1] = test system: interferon-stimulated responsive elements (ISRE); test: Activation of ISRE promoter elements by conditioned media from PBMC (HEK-ISREluc); format: cell-based, human; settings: Homo sapiens; conditioned media from PBMC transferred to HEK-ISREluc cells, 24 hours; lowest effective concentration; read-out: PBMC LEC
Outline: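 Human PBMCs (≥2 donors, RPMI + 10% human AB serum, 2×10^5 cells/well) incubated overnight with compound; supernatant transferred to HEK293 cells stably carrying pISRE-Luc for 24 h, then luciferase read. LEC = compound concentration on PBMCs giving luciferase signal at least two-fold above assay SD; recombinant IFN-α-2a standard.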

Structure (SMILES): COCCn1ccc2nc(N)nc(NC(C)COC)c21 (stereo not drawn) [Compound 212]
- TLR8 LEC (human TLR8): >25 µM
- TLR7 LEC (human TLR7): 7.60 µM
- minimal effective concentration [1]: 2.09 µM

Structure (SMILES): COc1cccnc1Cn1ccc2nc(N)nc(NCc3ncc(C)o3)c21 [Compound 213]
- TLR8 LEC (human TLR8): >25 µM
- TLR7 LEC (human TLR7): <0.01 µM
- minimal effective concentration [1]: 0.001 µM

Structure (SMILES): COc1ccccc1Cn1ccc2nc(N)nc(NCc3ncc(C)s3)c21 [Compound 215]
- TLR8 LEC (human TLR8): >25 µM
- TLR7 LEC (human TLR7): <0.01 µM
- minimal effective concentration [1]: 0.001 µM
